In ChEMBL document CHEMBL3875162, “Synthesis and biological evaluation of new benzimidazole-thiazolidinedione hybrids as potential cytotoxic and apoptosis inducing agents” (Eur J Med Chem, 2016):
pIC50: −log10 of the molar value. Activity calls are given as the source filed them. No cut-off for these calls is given here.

What was measured:
[1] = tested on: A549; assay: Induction of apoptosis in human A549 cells assessed as early apoptotic cells at 15 uM after 24 hrs by Annexin V-FITC/propidium iodide staining based flow cytometry (reference value: 2.6%); format: functional
[2] = Antimigratory activity in human A549 cells assessed as cell migration at 15 uM after 24 hrs by phase contrast microscopy-based wound healing assay relative to control; format: functional
[3] = tested on: A549; assay: Induction of apoptosis in human A549 cells assessed as condensation of chromatin at 5 uM after 24 hrs by acridine orange/ethidium bromide-dual staining based fluorescence microscopic method; format: functional, cell-based
[4] = tested on: A549; assay: Induction of apoptosis in human A549 cells assessed as late apoptotic cells at 10 uM after 24 hrs by Annexin V-FITC/propidium iodide staining based flow cytometry (reference value: 0.8%); format: functional
[5] = tested on: A549; assay: Induction of apoptosis in human A549 cells assessed as viable cells at 5 uM after 24 hrs by Annexin V-FITC/propidium iodide staining based flow cytometry (reference value: 94%); format: functional; conditions: A549, 24 h, read-out: Activity
[6] = tested on: A549; assay: Induction of apoptosis in human A549 cells assessed as cell membrane blebbing at 5 uM after 24 hrs by acridine orange/ethidium bromide-dual staining based fluorescence microscopic method; format: functional
[7] = tested on: A549; assay: Induction of apoptosis in human A549 cells assessed as chromatin condensation at 5 to 15 uM after 24 hrs by DAPI staining based fluorescence microscopic method; format: functional, cell-based
[8] = Cytotoxicity against human MCF10A cells assessed as cell growth inhibition after 48 hrs by MTT assay; format: toxicity, cell-based, MCF-10A
[9] = Cell cycle arrest in human A549 cells assessed as accumulation at S phase at 15 uM after 24 hrs by propidium iodide staining-based flow cytometry (reference value: 11.5%); format: functional
[10] = Cell cycle arrest in human A549 cells assessed as accumulation at S phase at 10 uM after 24 hrs by propidium iodide staining-based flow cytometry (reference value: 11.5%); format: functional
[11] = tested on: A549; assay: Induction of apoptosis in human A549 cells assessed as late apoptotic cells at 5 uM after 24 hrs by Annexin V-FITC/propidium iodide staining based flow cytometry (reference value: 0.8%); format: functional
[12] = Antimigratory activity in human A549 cells assessed as cell migration at 15 uM after 48 hrs by phase contrast microscopy-based wound healing assay relative to control; format: functional
[13] = Cell cycle arrest in human A549 cells assessed as accumulation at G2/M phase at 15 uM after 24 hrs by propidium iodide staining-based flow cytometry (reference value: 23.3%); format: functional
[14] = Antimigratory activity in human A549 cells assessed as cell migration at 10 uM after 24 hrs by phase contrast microscopy-based wound healing assay relative to control; format: functional
[15] = tested on: A549; assay: Induction of apoptosis in human A549 cells assessed as necrotic cells at 15 uM after 24 hrs by Annexin V-FITC/propidium iodide staining based flow cytometry (reference value: 2.3%); format: functional
[16] = tested on: A549; assay: Induction of apoptosis in human A549 cells assessed as increase in superoxide production after 24 to 48 hrs by mitoSOX red-probe based fluorescence microscopic method; format: functional, cell-based
[17] = tested on: A549; assay: Induction of apoptosis in human A549 cells assessed as destructive fragmentation of nucleus forming horse-shoe shaped structure at 10 to 15 uM after 24 hrs by acridine orange/ethidium bromide-dual staining based fluorescence microscopic method; format: functional, cell-based
[18] = tested on: A549; assay: Induction of apoptosis in human A549 cells assessed as early apoptotic cells at 5 uM after 24 hrs by Annexin V-FITC/propidium iodide staining based flow cytometry (reference value: 2.6%); format: functional
[19] = tested on: A549; assay: Induction of mitochondrial membrane potential loss in human A549 cells at 15 uM after 24 hrs by rhodamine-123 staining based flow cytometry relative to control; format: functional
[20] = Cell cycle arrest in human A549 cells assessed as accumulation at G2/M phase at 10 uM after 24 hrs by propidium iodide staining-based flow cytometry (reference value: 23.3%); format: functional
[21] = Cytotoxicity against human DU145 cells assessed as cell growth inhibition after 48 hrs by MTT assay; format: functional, cell-based; conditions: DU-145, 48 h
[22] = Induction of apoptosis in human A549 cells assessed as irregular distribution of chromatin at 10 to 15 uM after 24 hrs by acridine orange/ethidium bromide-dual staining based fluorescence microscopic method; format: functional, cell-based
[23] = Cell cycle arrest in human A549 cells assessed as accumulation at G0/G1 phase at 5 uM after 24 hrs by propidium iodide staining-based flow cytometry (reference value: 66.6%); format: functional
[24] = Antimigratory activity in human A549 cells assessed as cell migration at 5 uM after 24 hrs by phase contrast microscopy-based wound healing assay relative to control; format: functional
[25] = tested on: A549; assay: Induction of apoptosis in human A549 cells assessed as necrotic cells at 10 uM after 24 hrs by Annexin V-FITC/propidium iodide staining based flow cytometry (reference value: 2.3%); format: functional
[26] = tested on: A549; assay: Induction of apoptosis in human A549 cells assessed as apoptotic body formation at 10 to 15 uM after 24 hrs by acridine orange/ethidium bromide-dual staining based fluorescence microscopic method; format: functional, cell-based
[27] = tested on: A549; assay: Induction of apoptosis in human A549 cells assessed as necrotic cells at 5 uM after 24 hrs by Annexin V-FITC/propidium iodide staining based flow cytometry (reference value: 2.3%); format: functional
[28] = tested on: A549; assay: Induction of mitochondrial membrane potential loss in human A549 cells at 10 uM after 24 hrs by rhodamine-123 staining based flow cytometry relative to control; format: functional
[29] = Cell cycle arrest in human A549 cells assessed as accumulation at G0/G1 phase at 10 uM after 24 hrs by propidium iodide staining-based flow cytometry (reference value: 66.6%); format: functional
[30] = tested on: A549; assay: Induction of apoptosis in human A549 cells assessed as viable cells at 10 uM after 24 hrs by Annexin V-FITC/propidium iodide staining based flow cytometry (reference value: 94%); format: functional; conditions: A549, 24 h, read-out: Activity
[31] = tested on: A549; assay: Induction of apoptosis in human A549 cells assessed as decrease in cell viability at 5 to 15 uM after 24 hrs by phase contrast microscopic method; format: functional, cell-based
[32] = tested on: A549; assay: Inhibition of F-actin polymerization in human A549 cells assessed as disruption of actin fibre assembly after 24 hrs by rhodamine-phalloidin/[…]-dual staining based fluorescent microscopic method; format: cell-based
[33] = tested on: A549; assay: Induction of apoptosis in human A549 cells after 24 hrs by Annexin V-FITC/propidium iodide staining based flow cytometry; format: functional, cell-based
[34] = tested on: A549; assay: Induction of apoptosis in human A549 cells assessed as nuclear condensation at 5 to 15 uM after 24 hrs by DAPI staining based fluorescence microscopic method; format: functional, cell-based
[35] = Cytotoxicity against human PC3 cells assessed as cell growth inhibition after 48 hrs by MTT assay; format: functional, cell-based; conditions: PC-3, 48 h
[36] = tested on: A549; assay: Induction of morphological changes in human A549 cells assessed as cell shrinkage at 5 to 15 uM after 24 hrs by phase contrast microscopic method; format: functional, cell-based
[37] = tested on: A549; assay: Induction of morphological changes in human A549 cells assessed as […] at 5 to 15 uM after 24 hrs by phase contrast microscopic method; format: functional, cell-based
[38] = tested on: A549; assay: Induction of apoptosis in human A549 cells assessed as early apoptotic cells at 10 uM after 24 hrs by Annexin V-FITC/propidium iodide staining based flow cytometry (reference value: 2.6%); format: functional

## Cn1c(/C=C2\SC(=O)N(CC(=O)Nc3nc(-c4ccccc4)cs3)C2=O)nc2ccccc21
[1]
  Activity: 19.4%
[2]
  Activity: 60.4%
[3]
  Activity: Active
[4]
  Activity: 7.9%
[5]
  viability at 5 µM: 80.5%
[6]
  Activity: Active
[7]
  Activity: Active
[8]
  IC50 at 48 h: > 100 µM
[9]
  Activity: 13.5%
[10]
  Activity: 7.9%
[11]
  Activity: 6.2%
[12]
  Activity: 29.6%
[13]
  Activity: 57.8%
[14]
  Activity: 74.3%
[15]
  Activity: 2.5%
[16]
  Activity: Dose-dependent effect
[17]
  Activity: Active
[18]
  Activity: 12.8%
[19]
  Activity: 45.8%
[20]
  Activity: 49.3%
[21]
  pIC50: 4.50
[22]
  Activity: Active
[23]
  Activity: 48.9%
[24]
  Activity: 77.8%
[25]
  Activity: 3%
[26]
  Activity: Active
[27]
  Activity: 0.6%
[28]
  Activity: 30.6%
[29]
  Activity: 44.8%
[30]
  viability at 10 µM: 73.3%
[31]
  Activity: Active
[32]
  inhibition: Dose-dependent effect
[33]
  Activity: Dose-dependent effect
[34]
  Activity: Active
[35]
  pIC50: 4.40
[36]
  Activity: Active
[37]
  Activity: Active
[38]
  Activity: 15.8%
